PubChem BioAssay (NCI)
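Test compounds were applied to cells in 96-well plates for 48 hours at 5 doses. TGI is the concentration that stops growth completely.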

Legend:
Test in all cases: NCI anticancer screen, dose series, 48 h
786-0 renal = tested on: 786-0 renal
A498 renal = tested on: A498 renal
A549 NSCLC = tested on: A549 NSCLC
ACHN renal = tested on: ACHN renal
BT-549 breast = tested on: BT-549 breast
CAKI-1 renal = tested on: CAKI-1 renal
CCRF-CEM leukemia = tested on: CCRF-CEM leukemia
COLO 205 colon = tested on: COLO 205 colon
DU-145 prostate = tested on: DU-145 prostate
EKVX NSCLC = tested on: EKVX NSCLC
HCC-2998 colon = tested on: HCC-2998 colon
HCT-116 colon = tested on: HCT-116 colon
HCT-15 colon = tested on: HCT-15 colon
HL-60(TB) leukemia = tested on: HL-60(TB) leukemia
HOP-62 NSCLC = tested on: HOP-62 NSCLC
HOP-92 NSCLC = tested on: HOP-92 NSCLC
HS 578T breast = tested on: HS 578T breast
HT29 colon = tested on: HT29 colon
IGROV1 ovarian = tested on: IGROV1 ovarian
K-562 leukemia = tested on: K-562 leukemia
KM12 colon = tested on: KM12 colon
LOX IMVI melanoma = tested on: LOX IMVI melanoma
M14 melanoma = tested on: M14 melanoma
MALME-3M melanoma = tested on: MALME-3M melanoma
MCF7 breast = tested on: MCF7 breast
MDA-MB-231 breast = tested on: MDA-MB-231 breast
MDA-MB-435 = tested on: MDA-MB-435
MDA-N = tested on: MDA-N
MOLT-4 leukemia = tested on: MOLT-4 leukemia
NCI-H226 lung = tested on: NCI-H226 lung
NCI-H23 lung = tested on: NCI-H23 lung
NCI-H460 lung = tested on: NCI-H460 lung
NCI/ADR-RES ovarian = tested on: NCI/ADR-RES ovarian
OVCAR-3 ovarian = tested on: OVCAR-3 ovarian
OVCAR-4 ovarian = tested on: OVCAR-4 ovarian
OVCAR-5 ovarian = tested on: OVCAR-5 ovarian
OVCAR-8 ovarian = tested on: OVCAR-8 ovarian
PC-3 prostate = tested on: PC-3 prostate
RPMI-8226 leukemia = tested on: RPMI-8226 leukemia
RXF 393 renal = tested on: RXF 393 renal
SF-268 CNS = tested on: SF-268 CNS
SF-295 CNS = tested on: SF-295 CNS
SF-539 CNS = tested on: SF-539 CNS
SK-MEL-2 melanoma = tested on: SK-MEL-2 melanoma
SK-MEL-28 melanoma = tested on: SK-MEL-28 melanoma
SK-MEL-5 melanoma = tested on: SK-MEL-5 melanoma
SK-OV-3 ovarian = tested on: SK-OV-3 ovarian
SN12C renal = tested on: SN12C renal
SNB-19 CNS = tested on: SNB-19 CNS
SR leukemia = tested on: SR leukemia
SW-620 colon = tested on: SW-620 colon
T-47D breast = tested on: T-47D breast
TK-10 renal = tested on: TK-10 renal
U251 CNS = tested on: U251 CNS
UACC-257 melanoma = tested on: UACC-257 melanoma
UACC-62 melanoma = tested on: UACC-62 melanoma
UO-31 renal = tested on: UO-31 renal
NCI-H522 lung = tested on: NCI-H522 lung
SNB-75 CNS = tested on: SNB-75 CNS

Measured: TGI

COc1cc2c(cc1OC)C(=O)/C(=C/c1ccc(Cl)cc1)CC2
not listed: NCI-H522 lung | SNB-75 CNS
> 10 µM: all other assays above

Cn1c2ccc3cc2c(=S)c2cc(ccc21)OCCOCCOCCOCCOCCO3
not listed: UO-31 renal
> 10 µM: all other assays above
